Test in all cases: NCI-60 cell line screen, 48 h
In assay [1] the test system is 786-0 renal.
For assay [2], the system named is OVCAR-5 ovarian.
The subject of assay [3] is A549 NSCLC.
The test system of assay [4] is SK-MEL-28 melanoma.
Assay [5] has as its system K-562 leukemia.
For assay [6], the system named is RPMI-8226 leukemia.
Assay [7] deals with SNB-19 CNS.
The subject of assay [8] is PC-3 prostate.
The subject of assay [9] is SF-268 CNS.
Assay [10] has as its system HT29 colon.

Several values for one entry are separate records, joined by “and”; a condition that tells them apart may be missing. Equal values may be shown once.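 These data come from cells grown in 96-well plates and exposed to compound for 48 hours at five concentrations. Abbreviation: GI50, concentration required for 50% inhibition of growth. TGI: concentration producing complete growth inhibition.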

`CCCCCCCCCCCCOC1C(C(COC2OC(C3COC(C)(C)O3)C3OC(C)(C)OC23)NC(=O)NS(=O)(=O)c2ccccc2)OC2OC(C)(C)OC21` (configuration not stated): the GI50 was 3.51 µM in assay [1]; 4.34 µM in assay [2]; 4.58 µM in [3]; 9.61 µM in [4]; 2.57 µM in assay [5]; 1.95 µM in assay [6]. The GI50 was 9.18 µM in [7], 3.27 µM in [8], 4.34 µM in [9] and 4.32 µM in assay [10]. The TGI came to 11.6 µM in [1]; 13.8 µM in assay [2]; 27.3 µM in assay [3]; 28 µM in assay [4]; 16.1 µM in assay [5]; 6.77 µM in [6]. For the same compound, the TGI in assay [7] worked out at 40 µM; in assay [8], 13.8 µM; in [9], 19.6 µM; in assay [10] it was 16.4 µM.
Consider `CC(C)COCC(CN(Cc1ccccc1)c1ccccc1)N1CCCC1` (configuration not stated), for which the GI50 in assay [1] was 3.46 µM; in assay [2], 3.93 µM; in assay [3] it was 3.48 µM; in assay [4], 3.48 µM; in [5] it was 3.43 µM; in assay [6], 1.91 µM. In addition, the GI50 was 3.07 µM in assay [7], 3.04 µM in assay [8], 4.01 µM in [9] and 1.46 µM in assay [10]. The TGI in assay [1] came to 12.8 µM; in [2], 15.8 µM; in assay [3], 13.5 µM; in assay [4] it was 13.8 µM; in assay [5] it was 10.3 µM; in assay [6], 5.41 µM. The TGI in assay [7] came out at 12.2 µM; in assay [8], 13.9 µM; in assay [9] it was 16.1 µM; in assay [10], 4.17 µM.
Consider `COc1ccc(S(=O)(=O)Nc2cc(/C=C\c3cc(OC)c(OC)c(OC)c3)ccc2OC)cc1`, for which the GI50 in [1] is 0.361 µM; in assay [2], 0.323 µM; in [3], 0.159 µM; in assay [4], 0.143 µM; in [5], 0.053 µM; in assay [6], 0.319 µM. In addition, the GI50 was 0.352 µM in assay [7], 0.124 µM in assay [8], 0.401 µM in [9] and 0.0809 µM in assay [10]. Also, the TGI in assay [1] is 95.6 µM; in [2] it was > 100 µM; in assay [3], > 100 µM; in assay [4], > 100 µM; in assay [5] it was > 100 µM; in [6] it was 3.83 µM. For the same compound, the TGI in assay [7] was > 100 µM; in [8], > 100 µM; in [9] it was > 100 µM; in assay [10], 8.22 µM.
As for `Nc1c([N+](=O)[O-])cc2c3c(cccc13)CC2`, the TGI in assay [1], in assay [2], in [3], in assay [4], in assay [5] and in [6] was > 100 µM each time. The TGI in assay [7], in [8], in [9] and in [10] was > 100 µM in each case.
Take `COc1cc(NC(=O)CSc2nc3ccc(C)cc3c(=O)n2Cc2ccccc2)cc(OC)c1OC`: the GI50 in assay [1] was 3.2 µM; in [2], 58 µM; in assay [3], 10.5 µM; in assay [4], 7.04 µM; in assay [5] it was > 100 µM; in [6] it was 69.3 µM. In addition, the GI50 in [7] is 21.4 µM; in [8], 6.88 µM; in assay [9], 6.91 µM; in assay [10], > 100 µM. In addition, the TGI in assay [1] was 14.6 µM; in assay [2], > 100 µM; in assay [3] it was > 100 µM; in [4] it was 59.7 µM; in [5] it was > 100 µM; in assay [6] it was > 100 µM. Besides, the TGI in [7], in assay [8], in [9] and in assay [10] was > 100 µM in each case.
For the compound `O=P(CCCCP(=O)(c1ccccc1)c1ccccc1)(c1ccccc1)c1ccccc1.[Cl][Sn]([Cl])([c]1ccccc1)[c]1ccccc1`, the GI50 is 1.07 µM in assay [1]; 1.93 µM in assay [2]; 3.59 µM in [3]; 1.7 µM in assay [4]; 0.444 µM in assay [5]; 0.332 µM in assay [6]. The GI50 is 4.18 µM in assay [7], 2.29 µM in assay [8], 1.75 µM in assay [9] and 1.89 µM in assay [10]. The TGI in assay [1] was 2.48 µM; in assay [2], 4 µM; in [3], > 23.6 µM; in assay [4], 3.32 µM; in assay [5] it was > 100 µM; in [6], 1.16 µM. For the same compound, the TGI turned out to be 18 µM in assay [7], 6.04 µM in assay [8], 4.05 µM in assay [9] and 4.01 µM in assay [10].
Turning to `CC1(O)CC(c2nc(-c3ccc4ccc(-c5ccccc5)nc4c3)c3c(N)nccn23)C1` (configuration not stated), the GI50 in [1] is 15 µM and > 10 µM; in [2], 12.1 µM and > 10 µM; in assay [3] it was 10.5 µM and > 10 µM; in [4] it was 12 µM and > 10 µM; in assay [6], 6.55 µM and 3.98 µM; in [7] it was 19.8 µM and > 10 µM. Further, the GI50 in [8] is 12.7 µM and > 10 µM; in [9], 12.9 µM and > 10 µM; in assay [10], 0.105 µM and 0.0588 µM. The TGI is 53.7 µM and > 10 µM in assay [1]; 44.7 µM and > 10 µM in assay [2]; > 100 µM in [3]; 44.3 µM and > 10 µM in assay [4]; > 100 µM in assay [5]; 31.9 µM and > 10 µM in assay [6]. For the same compound, the TGI in assay [7] was > 100 µM; in assay [8], > 100 µM; in assay [9] it was 55.3 µM and > 10 µM; in assay [10], 21.5 µM and > 10 µM.
Consider `N#CC1=C(N)Oc2c(sc3c(Br)cccc23)C1c1ccc(Br)cc1` (configuration not stated), for which the GI50 in assay [1] was 0.776 µM; in assay [2], 3.12 µM; in [3], 0.424 µM; in assay [4], 1.44 µM; in [5] it was 0.137 µM; in assay [6], 1.44 µM. The GI50 in [7] was 0.707 µM; in assay [8], 0.516 µM; in assay [9] it was 1.15 µM; in [10] it was 0.315 µM. Moreover, the TGI in assay [1] stood at 2.96 µM; in assay [2] it was 14.3 µM; in [3], 2.23 µM; in [4] it was 13.3 µM; in assay [5], 3.16 µM; in assay [6], 16 µM. The TGI in [7] came to 12.8 µM; in [8] it was 6.32 µM; in assay [9] it was 10 µM; in [10] it was 1.21 µM.
Regarding `COc1cc(Cl)cc(-c2nn(-c3cccc(NC(=O)Nc4cc(C(F)(F)F)cc(C(F)(F)F)c4)c3)cc2-c2ccncc2)c1`, the GI50 in [1] is 0.821 µM; in assay [2] it was 1.6 µM; in assay [3], 0.386 µM; in assay [4], 1.07 µM; in [5], 0.339 µM; in assay [6], 0.288 µM. Also, the GI50 is 0.612 µM in [7], 0.311 µM in assay [8], 0.645 µM in [9] and 0.443 µM in assay [10]. The TGI amounted to 2.64 µM in assay [1]; 10.1 µM in assay [2]; 5.62 µM in [3]; 4.83 µM in assay [4]; 8.09 µM in [5]; 1.03 µM in assay [6]. The TGI stood at 12.7 µM in assay [7], 1.62 µM in assay [8], 4.35 µM in assay [9] and 2.38 µM in [10].
In the case of `Cc1cc(NCc2cc(Nc3ccnc4cc(Cl)ccc34)ccc2F)nc(N2CCN(C)CC2)n1`, the GI50 in assay [1] was 1.44 µM; in assay [2], 2.05 µM; in [3], 3.07 µM; in assay [4], 1.7 µM; in assay [5], 0.386 µM; in assay [6], 1.32 µM. The GI50 in [7] is 2.72 µM; in assay [8], 1.92 µM; in [9] it was 1.81 µM; in assay [10], 1.72 µM. The TGI in assay [1] stood at 2.88 µM; in assay [2], 5.17 µM; in [3] it was 10.9 µM; in assay [4] it was 3.26 µM; in assay [5] it was 2.11 µM; in assay [6], 3.65 µM. Moreover, the TGI in [7] was 12.9 µM; in assay [8], 7.97 µM; in assay [9] it was 4.53 µM; in assay [10] it was 5.13 µM.
For the compound `O=c1[nH]c(=O)c2cc(C3CC(O)C(CO)O3)ccc2[nH]1` (configuration not stated), the GI50 in [1], in assay [2], in assay [3], in assay [4], in [5] and in assay [6] was > 100 µM in each case. Besides, the GI50 in assay [7], in assay [8], in assay [9] and in assay [10] was > 100 µM in each case. The TGI in assay [1], in assay [2], in assay [3], in [4], in [5] and in assay [6] was > 100 µM throughout. Besides, the TGI in assay [7], in assay [8], in assay [9] and in assay [10] was > 100 µM throughout.
Turning to `COC(=O)C1=C(C(=O)OC)SC(=C(Cl)C(=S)Nc2ccccc2O)S1`, the GI50 in assay [1] is 0.686 µM; in assay [2] it was 11.6 µM; in assay [3] it was 21.2 µM; in [4] it was > 50 µM; in assay [5] it was 22.6 µM; in [6], 33 µM. Further, the GI50 is 18 µM in assay [7], 22.2 µM in [8], 10.2 µM in [9] and 30.2 µM in [10]. For the same compound, the TGI in assay [1] is 10.1 µM; in assay [2] it was 31.5 µM; in assay [3] it was > 50 µM; in assay [4] it was > 50 µM; in [5] it was > 50 µM; in [6] it was > 50 µM. The TGI is > 50 µM in assay [7], > 50 µM in assay [8], 23.6 µM in assay [9] and > 50 µM in assay [10].
Consider `O=Cc1ccccc1B(O)O`, for which the TGI in assay [1] was > 100 µM; in [2], > 100 µM; in assay [3] it was 38.5 µM; in [4], > 100 µM; in [5] it was > 100 µM; in assay [6], 0.0472 µM. Further, the TGI in [7], in [8], in assay [9] and in [10] was > 100 µM in each case.
As for `O=C1C=CC[C@H](/C=C/c2ccccc2)O1`, the GI50 in assay [1] is 6.28 µM; in assay [2] it was 1.92 µM; in assay [3], 3.56 µM; in assay [4], 2.76 µM; in [6], 0.742 µM; in [7], 3.61 µM. In addition, the results for the GI50 in assay [8], in assay [9] and in assay [10] were 3.37 µM, 2.44 µM and 1.88 µM, respectively. For the same compound, the TGI in assay [1] was 24.3 µM; in [2], 10.4 µM; in assay [3] it was > 100 µM; in [4], 15.3 µM; in assay [5], > 100 µM; in assay [7] it was 22.6 µM. The values for the TGI in assay [8], in [9] and in assay [10] were 27.5 µM, 16.6 µM and 23.9 µM, respectively.
For the compound `COc1ccccc1N1CCN(CCc2c[nH]c3cc4c(cc23)OCO4)CC1`, the GI50 was 32.4 µM in assay [1]; 15.5 µM in [2]; 31 µM in assay [3]; 43.9 µM in [4]; 24.4 µM in [5]; 25.1 µM in assay [6]. Moreover, the GI50 in [7] is 26 µM; in assay [8], 20 µM; in assay [9], 35.6 µM; in assay [10], 3.39 µM. For the same compound, the TGI in assay [1], in [2], in assay [3], in assay [4], in assay [5] and in assay [6] was > 100 µM throughout. Also, the TGI in assay [7], in [8], in assay [9] and in [10] was > 100 µM in each case.

The record behind these values is PubChem BioAssay (NCI).
